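Interpolation was linear, between the two tested concentrations surrounding the appropriate level; five concentrations were tested over 48 hours in 96-well plates. At the GI50, growth is halved. TGI: concentration producing complete growth inhibition.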
How the values were obtained:
Assay in all cases: growth of human tumour cells (NCI), 48 h
U251 CNS = test system: U251 CNS
HT29 colon = test system: HT29 colon
MCF7 breast = test system: MCF7 breast
NCI-H460 lung = test system: NCI-H460 lung
SK-OV-3 ovarian = test system: SK-OV-3 ovarian
KM12 colon = test system: KM12 colon
UACC-257 melanoma = test system: UACC-257 melanoma
HCT-116 colon = test system: HCT-116 colon
UACC-62 melanoma = test system: UACC-62 melanoma
HOP-92 NSCLC = test system: HOP-92 NSCLC
MDA-MB-435 = test system: MDA-MB-435
CCRF-CEM leukemia = test system: CCRF-CEM leukemia
NCI/ADR-RES ovarian = test system: NCI/ADR-RES ovarian
NCI-H23 lung = test system: NCI-H23 lung
SF-539 CNS = test system: SF-539 CNS
SR leukemia = test system: SR leukemia
UO-31 renal = test system: UO-31 renal
OVCAR-4 ovarian = test system: OVCAR-4 ovarian
HOP-62 NSCLC = test system: HOP-62 NSCLC
HCT-15 colon = test system: HCT-15 colon
HL-60(TB) leukemia = test system: HL-60(TB) leukemia
SK-MEL-28 melanoma = test system: SK-MEL-28 melanoma
HCC-2998 colon = test system: HCC-2998 colon
MALME-3M melanoma = test system: MALME-3M melanoma
LOX IMVI melanoma = test system: LOX IMVI melanoma
COLO 205 colon = test system: COLO 205 colon
MOLT-4 leukemia = test system: MOLT-4 leukemia
PC-3 prostate = test system: PC-3 prostate
DU-145 prostate = test system: DU-145 prostate
SNB-19 CNS = test system: SNB-19 CNS
NCI-H522 lung = test system: NCI-H522 lung
SW-620 colon = test system: SW-620 colon
OVCAR-8 ovarian = test system: OVCAR-8 ovarian
IGROV1 ovarian = test system: IGROV1 ovarian
K-562 leukemia = test system: K-562 leukemia
SNB-75 CNS = test system: SNB-75 CNS
SF-295 CNS = test system: SF-295 CNS
RPMI-8226 leukemia = test system: RPMI-8226 leukemia
OVCAR-5 ovarian = test system: OVCAR-5 ovarian
MDA-MB-231 breast = test system: MDA-MB-231 breast
ACHN renal = test system: ACHN renal
A549 NSCLC = test system: A549 NSCLC
M14 melanoma = test system: M14 melanoma
TK-10 renal = test system: TK-10 renal
SK-MEL-2 melanoma = test system: SK-MEL-2 melanoma
786-0 renal = test system: 786-0 renal
SN12C renal = test system: SN12C renal
SK-MEL-5 melanoma = test system: SK-MEL-5 melanoma
SF-268 CNS = test system: SF-268 CNS
A498 renal = test system: A498 renal
OVCAR-3 ovarian = test system: OVCAR-3 ovarian
BT-549 breast = test system: BT-549 breast
HS 578T breast = test system: HS 578T breast
NCI-H226 lung = test system: NCI-H226 lung

Compound `Cn1cc(C2=C(c3cn(C)c4cc(Cl)ccc34)C(=O)NC2=O)c2ccccc21` has a GI50 (U251 CNS) of 98.8 nM, a TGI (U251 CNS) greater than 25000 nM and a GI50 (HT29 colon) of 92.8 nM. For the same compound, the TGI (HT29 colon) was greater than 9620 nM, the GI50 (MCF7 breast) was 97.2 nM and the TGI (MCF7 breast) was greater than 25000 nM. It also gave a GI50 (NCI-H460 lung) of 96.1 nM, a TGI (NCI-H460 lung) greater than 8900 nM and a GI50 (SK-OV-3 ovarian) of 101 nM. The TGI (SK-OV-3 ovarian) was greater than 25000 nM, the GI50 (KM12 colon) was 106 nM and the TGI (KM12 colon) was 4350 nM. For the same compound, the GI50 (UACC-257 melanoma) was 169 nM, the TGI (UACC-257 melanoma) was greater than 25000 nM and the GI50 (HCT-116 colon) was 113 nM. The TGI (HCT-116 colon) was greater than 20600 nM, the GI50 (UACC-62 melanoma) was 98.1 nM and the TGI (UACC-62 melanoma) was greater than 25000 nM. It also gave a GI50 (HOP-92 NSCLC) of 146 nM, a TGI (HOP-92 NSCLC) greater than 23000 nM and a GI50 (MDA-MB-435) of 47.5 nM. The TGI (MDA-MB-435) was 120 nM, the GI50 (CCRF-CEM leukemia) was 93 nM and the TGI (CCRF-CEM leukemia) was greater than 25000 nM. For the same compound, the GI50 (NCI/ADR-RES ovarian) was 76.1 nM, the GI50 (NCI-H23 lung) was 106 nM and the TGI (NCI-H23 lung) was 9100 nM. It also gave a GI50 (SF-539 CNS) of 55.6 nM, a TGI (SF-539 CNS) of 141 nM and a GI50 (SR leukemia) of 73 nM. It also gave a TGI (SR leukemia) of 6380 nM, a GI50 (UO-31 renal) of 195 nM and a TGI (UO-31 renal) greater than 25000 nM. It also gave a GI50 (OVCAR-4 ovarian) of 362 nM, a TGI (OVCAR-4 ovarian) greater than 25000 nM and a GI50 (HOP-62 NSCLC) of 124 nM. It also gave a TGI (HOP-62 NSCLC) greater than 25000 nM, a GI50 (HCT-15 colon) of 103 nM and a TGI (HCT-15 colon) greater than 25000 nM. The GI50 (HL-60(TB) leukemia) was 81.4 nM, the TGI (HL-60(TB) leukemia) was 241 nM and the GI50 (SK-MEL-28 melanoma) was 3590 nM. For the same compound, the TGI (SK-MEL-28 melanoma) was greater than 25000 nM, the GI50 (HCC-2998 colon) was 203 nM and the TGI (HCC-2998 colon) was greater than 11700 nM. For the same compound, the GI50 (MALME-3M melanoma) was 87.8 nM, the TGI (MALME-3M melanoma) was 6990 nM and the GI50 (LOX IMVI melanoma) was 198 nM. The TGI (LOX IMVI melanoma) was greater than 25000 nM, the GI50 (COLO 205 colon) was 70 nM and the TGI (COLO 205 colon) was 180 nM. It also gave a GI50 (MOLT-4 leukemia) of 345 nM, a TGI (MOLT-4 leukemia) greater than 25000 nM and a GI50 (PC-3 prostate) of 79.6 nM. It also gave a TGI (PC-3 prostate) greater than 25000 nM, a GI50 (DU-145 prostate) of 119 nM and a GI50 (SNB-19 CNS) of 145 nM. The TGI (SNB-19 CNS) was greater than 25000 nM, the GI50 (NCI-H522 lung) was 72.3 nM and the TGI (NCI-H522 lung) was 345 nM. It also gave a GI50 (SW-620 colon) of 100 nM, a TGI (SW-620 colon) greater than 25000 nM and a GI50 (OVCAR-8 ovarian) of 117 nM. It also gave a TGI (OVCAR-8 ovarian) greater than 25000 nM, a GI50 (IGROV1 ovarian) of 240 nM and a TGI (IGROV1 ovarian) greater than 13200 nM. The GI50 (K-562 leukemia) was 89 nM, the TGI (K-562 leukemia) was greater than 25000 nM and the GI50 (SNB-75 CNS) was 89.3 nM. For the same compound, the TGI (SNB-75 CNS) was greater than 25000 nM, the GI50 (SF-295 CNS) was 93 nM and the TGI (SF-295 CNS) was greater than 25000 nM. For the same compound, the GI50 (RPMI-8226 leukemia) was 93.9 nM, the TGI (RPMI-8226 leukemia) was greater than 15200 nM and the GI50 (OVCAR-5 ovarian) was 157 nM. For the same compound, the TGI (OVCAR-5 ovarian) was greater than 25000 nM, the GI50 (MDA-MB-231 breast) was 125 nM and the TGI (MDA-MB-231 breast) was greater than 5580 nM. For the same compound, the GI50 (ACHN renal) was 181 nM, the TGI (ACHN renal) was greater than 25000 nM and the GI50 (A549 NSCLC) was 115 nM. For the same compound, the TGI (A549 NSCLC) was greater than 25000 nM, the GI50 (M14 melanoma) was 87.9 nM and the TGI (M14 melanoma) was greater than 25000 nM. It also gave a GI50 (TK-10 renal) of 3810 nM, a TGI (TK-10 renal) greater than 25000 nM and a GI50 (SK-MEL-2 melanoma) of 212 nM. For the same compound, the TGI (SK-MEL-2 melanoma) was greater than 25000 nM, the GI50 (786-0 renal) was 203 nM and the TGI (786-0 renal) was greater than 20800 nM. For the same compound, the GI50 (SN12C renal) was 145 nM, the TGI (SN12C renal) was greater than 15900 nM and the GI50 (SK-MEL-5 melanoma) was 102 nM. It also gave a TGI (SK-MEL-5 melanoma) of 2390 nM, a GI50 (SF-268 CNS) of 180 nM and a TGI (SF-268 CNS) greater than 15100 nM. For the same compound, the GI50 (A498 renal) was 61.9 nM, the TGI (A498 renal) was 928 nM and the GI50 (OVCAR-3 ovarian) was 65.3 nM. The TGI (OVCAR-3 ovarian) was 154 nM, the GI50 (BT-549 breast) was 623 nM and the TGI (BT-549 breast) was greater than 25000 nM. The GI50 (HS 578T breast) was 73.1 nM, the TGI (HS 578T breast) was 1930 nM and the GI50 (NCI-H226 lung) was 2080 nM. For the same compound, the TGI (NCI-H226 lung) was greater than 25000 nM.

— PubChem BioAssay (NCI)
